Test results reported in US20240174744A1, “METHODS OF TREATMENT USING PROTEIN BINDERS TO IRHOM2 EPITOPES” (SCIRHOM GMBH, priority 2021, published 2024).

Tested on: PMA-induced release of IL-6R from PBMCs from healthy donors
Assay: ELISA-based IL-6R release assay, PBMCs from healthy donors
Format: cell-based
Settings: Homo sapiens, PBMC; recombinant murine antibodies 1 μg/ml; Batimastat 10 μM; PMA 25 ng/ml, 6 hours
Description: In the following study, ELISA-based IL-6R release assays were performed to analyze the inhibitory effects of the antibodies of the present disclosure on PMA-induced release of endogenous IL-6R from primary human material obtained from healthy donors using peripheral blood mononuclear cells (PBMCs).
In brief, on day 1, Nunc black MaxiSorp® 96-well plates (Thermo Fisher Scientific, USA) were coated overnight with 100 μl per well of mouse anti-human IL-6R capture antibody (provided as part of the DuoSet ELISA kit) at 4 μg/ml TBS at 4° C. On day 2, the capture antibody solution was removed and MaxiSorp® plates were blocked with 300 μl per well of TBS, 1% BSA at room temperature for 3 hours. […] Using an infinite M1000 (Tecan Group, Switzerland) microplate reader, the fluorescence of each well was collected at an excitation wavelength of 435 nm and an emission wavelength of 555 nm.

CNC(=O)[C@H](Cc1ccccc1)NC(=O)[C@H](CC(C)C)[C@H](CSc1cccs1)C(=O)NO [Batimastat]
inhibition at 10 µM: 114%
